Tests used:
Type in all cases: cell-based
[1] = system: Ba/F3 cells KRAS G12D; assay: Ba/F3 proliferation assay (KRAS G12D); settings: Mus musculus, BaF3, 72 h, AlamarBlue viability
Description: (§1) Ba/F3 cells are ordered from DSMZ (ACC300, Lot17) and grown in RPMI-1640 (ATCC 30-2001)+10% FCS+10 ng/mL IL-3 at 37° C. in 5% […] atmosphere. Plasmids containing KRASG12 mutants (i.e. […], G12C, G12V) are obtained from GeneScript. To generate KRASG12-dependent Ba/F3 models, Ba/F3 cells are transduced with retroviruses containing vectors that harbor KRASG12 isoforms. Platinum-E cells (Cell Biolabs) are used for retrovirus packaging. Retrovirus is added to Ba/F3 cells. To ensure infection, 4 μg/mL polybrene is added and cells are spinfected. Infection efficiency is confirmed by measuring GFP-positive cells using a cell analyzer. Cells with an infection efficiency of 10% to 20% are further cultivated and puromycin selection with 1 μg/mL is initiated. As a control, parental Ba/F3 cells are used to show selection status. Selection is considered successful when parental Ba/F3 cells cultures died. To evaluate the transforming potential of KRASG12 mutations, the growth medium is no longer supplemented with IL-3. Ba/F3 cells harboring the empty vector are used as a control. Approximately ten days before conducting the experiments, puromycin is left out.
(§2) For proliferation assays, Ba/F3 cells are seeded into 384-well plates at 1.5×1 (M cells/60 μL in growth media (RPMI-1640+10% FCS). Compounds (10 mM stock in DMSO) are added at logarithmic dose series using the ECHO acoustic liquid handler system (Beckman Coulter), normalizing for added DMSO and including DMSO controls. All compound treatments are performed in technical duplicates. For the TO time point measurement, untreated cells are analyzed at the time of compound addition. Treated cells are incubated for 72 h at 37° C. with 5% CO2 and cell viability is measured in the PerkinElmer Envision Multimode Reader using AlamarBlue™ (ThermoFisher) viability stain. Viability (stated as percent of control) is defined as relative fluorescence units RFU of each well divided by the RFU of cells in DMSO controls. IC50 values are determined from viability measurements by non-linear regression using a four-parameter model.

[2] = system: Ba/F3 cells KRAS G12C; assay: Ba/F3 proliferation assay (KRAS G12C); settings: Mus musculus, BaF3, 72 h, AlamarBlue viability
Description: as §1, §2

[3] = system: AsPC-1 cells; assay: AsPC-1 CTG proliferation assay (120 h) (pancreatic cancer, G12D); settings: Homo sapiens, ASPC1
Description: AsPC-1 cells (ATCC CRL-1682) are dispensed into black 384-well plates, flat and clear bottom (Greiner, PNr. 781091) at a density of 500 cells per well in 60 μl RPMI ATCC-Formulation (PAN P04-18047)+10% FCS (fetal calf serum, HyClone, SH30084.03). Cells are incubated overnight at 37° C. in a humidified tissue culture incubator at 5% CO2. Compounds (10 mM stock in DMSO) are added at logarithmic dose series using the ECHO acoustic liquid handler system (Beckman Coulter), normalizing for added DMSO and including DMSO controls. All compound treatments are performed in technical duplicates. For the TO time point measurement, untreated cells are analyzed at the time of compound addition. Plates are incubated for 120 h, and cell viability is measured using CellTiter-Glo luminescent cell viability reagent (Promega product code G7570). Viability (stated as percent of control) is defined as relative luminescence units RLU of each well divided by the RLU of cells in DMSO controls. IC50 values are determined from viability measurements by non-linear regression using a four-parameter model.
IC50 values of representative compounds according to the invention measured with these assays in the indicated cell lines are presented in Table 46.

Structure (SMILES) | IC50 [1] | IC50 [2] | IC50 [3]
C[C@H](Oc1nc(-c2onc3c2CCC[C@@]32CCCc3sc(N)c(C#N)c32)nc2c1n(C)c(=O)n2[C@@H]1CCOC1)[C@@H]1[C@H](F)CCN1C [I-4] | 145 nM | 58 nM | 2740 nM
C[C@H](Oc1nc(-c2onc3c2CCC[C@@]32CCCc3sc(N)c(C#N)c32)nc2c1[nH]c(=O)n2[C@@H]1CCCOC1)[C@@H]1CCCN1C [I-13] | 141 nM | 38 nM | 2370 nM
CO[C@H]1C[C@H](n2c(=O)n(C)c3c(O[C@@H](C)[C@@H]4CCCN4C)nc(-c4onc5c4CCC[C@@]54CCCc5sc(N)c(C#N)c54)nc32)C1 [I-16] | 488 nM | 288 nM | 3990 nM
C[C@H](Oc1nc(-c2onc3c2CCC[C@@]32CCCc3sc(N)c(C#N)c32)nc2c1n(C)c(=O)n2[C@H]1CC2CCC1O2)[C@@H]1CCCN1C (some centres unmarked) [I-17] | 47 nM | 37 nM | 1480 nM
C[C@H](Oc1nc(-c2onc3c2CCC[C@@]32CCCc3sc(N)c(C#N)c32)nc2c1n(C)c(=O)n2[C@@H]1CC2CCC1O2)[C@@H]1CCCN1C (some centres unmarked) [I-18] | 182 nM | 109 nM | 4320 nM
C[C@H](Oc1nc(-c2onc3c2CCC[C@@]32CCCc3sc(N)c(C#N)c32)nc2c1n(C)c(=O)n2[C@H]1CCC[C@@H]1O)[C@@H]1CCCN1C [I-19] | 470 nM | 406 nM | 2990 nM
CO[C@H]1C[C@@H](n2c(=O)n(C)c3c(O[C@@H](C)[C@@H]4CCCN4C)nc(-c4onc5c4CCC[C@@]54CCCc5sc(N)c(C#N)c54)nc32)C1 [I-31] | 37 nM | 52 nM | 1070 nM
CCn1c(=O)n([C@@H]2CCCOC2)c2nc(-c3onc4c3CCC[C@@]43CCCc4sc(N)c(C#N)c43)nc(OC[C@@]34CCCN3C[C@H](F)C4)c21 [I-33] | 3550 nM | 1600 nM | 8950 nM
CCn1c(=O)n([C@@H]2CCCOC2)c2nc(-c3onc4c3CCC[C@@]43CCCc4sc(N)c(C#N)c43)nc(OCC34CCCN3CCC4)c21 [I-34] | 3020 nM | 1180 nM | 5070 nM
CCn1c(=O)n([C@@H]2CCCOC2)c2nc(-c3onc4c3CCC[C@@]43CCCc4sc(N)c(C#N)c43)nc(OCC3(CN4CCCC4)CC3)c21 [I-35] | 411 nM | 177 nM | 4250 nM
CCn1c(=O)n([C@@H]2CCCOC2)c2nc(-c3onc4c3CCC[C@@]43CCCc4sc(N)c(C#N)c43)nc(O[C@@H](C)C34CCCN3CCC4)c21 [I-36] | 95 nM | 31 nM | 1100 nM
C[C@H](Oc1nc(-c2onc3c2CCC[C@@]32CCCc3sc(N)c(C#N)c32)nc2c1N(C)C(=O)CN2[C@@H]1CCOC1)[C@@H]1CCCN1C [I-37] | 305 nM | 265 nM | 4120 nM
CO[C@@H]1C[C@@H]([C@H](C)Oc2nc(-c3onc4c3CCC[C@@]43CCCc4sc(N)c(C#N)c43)nc3c2n(C)c(=O)n3[C@H]2COC[C@@H](C)C2)N(C)C1 [I-52] | 28 nM | 8 nM | –
C[C@H](Oc1nc(-c2noc3c2CCC[C@@]32CCCc3sc(N)c(C#N)c32)nc2c1CN(c1ncccn1)[C@]21CCOC1)[C@@H]1CCCN1C [II-7a] | 28 nM | 10 nM | 307 nM
C[C@H](Oc1nc(-c2noc3c2CCC[C@@]32CCCc3sc(N)c(C#N)c32)nc2c1CN(c1ncccn1)[C@@]21CCOC1)[C@@H]1CCCN1C [II-7b] | 127 nM | 61 nM | 629 nM

Now those with a lower IC50 [1], led by results:

IC50 [1] | IC50 [2] | IC50 [3] | Structure (SMILES)
26 nM | 5 nM | – | CO[C@H]1CCN(C)[C@@H]1[C@H](C)Oc1nc(-c2onc3c2CCC[C@@]32CCCc3sc(N)c(C#N)c32)nc2c1n(C)c(=O)n2[C@H]1COC[C@@H](C)C1 [I-51]
22 nM | 4 nM | 314 nM | CO[C@@H]1C[C@@H]([C@H](C)Oc2nc(-c3onc4c3CCC[C@@]43CCCc4sc(N)c(C#N)c43)nc3c2CN(C2COC2)C[C@]32CCOC2)N(C)C1 [I-58]
17 nM | 3 nM | 271 nM | C[C@@H]1COC[C@H](n2c(=O)n(C)c3c(O[C@@H](C)[C@@H]4CCCN4C)nc(-c4onc5c4CCC[C@@]54CCCc5sc(N)c(C#N)c54)nc32)C1 [I-44]
15 nM | 2 nM | 292 nM | CO[C@@H]1C[C@@H]([C@H](C)Oc2nc(-c3onc4c3CCC[C@@]43CCCc4sc(N)c(C#N)c43)nc3c2n(C)c(=O)n3[C@@]23COC[C@@H]2C3)N(C)C1 [I-46]
13 nM | 4 nM | 92 nM | C[C@H](Oc1nc(-c2onc3c2CCC[C@@]32CCCc3sc(N)c(C#N)c32)nc2c1CN(C1COC1)C[C@]21CCOC1)[C@@H]1CCCN1C [I-56]
11 nM | 3 nM | 129 nM | CO[C@H]1CCN(C)[C@@H]1[C@H](C)Oc1nc(-c2onc3c2CCC[C@@]32CCCc3sc(N)c(C#N)c32)nc2c1CN(C1COC1)C[C@]21CCOC1 [I-57]
11 nM | 2 nM | 265 nM | CO[C@@H]1C[C@@H]([C@H](C)Oc2nc(-c3noc4c3CCC[C@@]43CCCc4sc(N)c(C#N)c43)nc3c2n(C)c(=O)n3[C@@]23COC[C@@H]2C3)N(C)C1 [II-6]
10 nM | 5 nM | 767 nM | CO[C@@H]1C[C@@H]([C@H](C)Oc2nc(-c3onc4c3CCC[C@@]43CCCc4sc(N)c(C#N)c43)nc3c2n(C)c(=O)n3[C@@H]2CCCOC2)N(C)C1 [I-14]
10 nM | 3 nM | 202 nM | C[C@H](Oc1nc(-c2onc3c2CCC[C@@]32CCCc3sc(N)c(C#N)c32)nc2c1CN(C1COC1)C[C@]21CCOC1)[C@@H]1CC[C@H](C)N1C [I-55]
9 nM | 4 nM | 607 nM | CO[C@H]1CCN(C)[C@@H]1[C@H](C)Oc1nc(-c2onc3c2CCC[C@@]32CCCc3sc(N)c(C#N)c32)nc2c1n(C)c(=O)n2[C@@H]1CCCOC1 [I-6]
9 nM | 3 nM | 236 nM | CO[C@H]1CCN(C)[C@@H]1[C@H](C)Oc1nc(-c2noc3c2CCC[C@@]32CCCc3sc(N)c(C#N)c32)nc2c1n(C)c(=O)n2[C@@H]1CCCOC1 [II-3]
6 nM | 1 nM | 286 nM | C[C@H](Oc1nc(-c2onc3c2CCC[C@@]32CCCc3sc(N)c(C#N)c32)nc2c1n(C)c(=O)n2[C@@]12COC[C@@H]1C2)[C@@H]1CC[C@H](C)N1C [I-45]
4 nM | 3 nM | – | C[C@H](Oc1nc(-c2onc3c2CCC[C@@]32CCCc3sc(N)c(C#N)c32)nc2c1n(C)c(=O)n2[C@H]1CO[C@@H](C)C1)[C@@H]1CC[C@H](C)N1C [I-50]
4 nM | 1 nM | 81 nM | CO[C@@H]1C[C@@H]([C@H](C)Oc2nc(-c3noc4c3CCC[C@@]43CCCc4sc(N)c(C#N)c43)nc3c2COC[C@]32CCOC2)N(C)C1 [II-11]
2 nM | 1 nM | 40 nM | C[C@H](Oc1nc(-c2noc3c2CCC[C@@]32CCCc3sc(N)c(C#N)c32)nc2c1n(C)c(=O)n2[C@H]1CO[C@@H](C)C1)[C@@H]1CCCN1C [II-5]
1 nM | 1 nM | – | C[C@H](Oc1nc(-c2onc3c2CCC[C@@]32CCCc3sc(N)c(C#N)c32)nc2c1n(C)c(=O)n2[C@H]1CO[C@@H](C)C1)[C@@H]1CCCN1C [I-47]
